Assay results published in the supplement of paper PMC10307832.

What was measured:
Experiment in all cases: relative viability (nuclei count vs DMSO), 5 days (fraction); higher = more cells survive
A549 = tested on: A549
Outline: (§1)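 Lung cancer cell lines in 1536-well plates got either a single drug or a fixed anchor-drug dose together with five library-drug doses (not always all listed) in √10 steps, by pin tool, on the day after seeding. Nuclei were counted after 5 days, and relative viability is the treated-to-vehicle ratio of nuclei counts. Values are medians of duplicate plates.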

Calu-6 = tested on: Calu-6
Outline: as §1

EBC-1 = tested on: EBC-1
Outline: as §1

HCC-78 = tested on: HCC-78
Outline: as §1

IA-LM = tested on: IA-LM
Outline: as §1

NCI-H1299 = tested on: NCI-H1299
Outline: as §1

NCI-H1703 = tested on: NCI-H1703
Outline: as §1

NCI-H2009 = tested on: NCI-H2009
Outline: as §1

NCI-H358 = tested on: NCI-H358
Outline: as §1

NCI-H460 = tested on: NCI-H460
Outline: as §1

NCI-H661 = tested on: NCI-H661
Outline: as §1

Structure (SMILES): COc1cc2nccc(Oc3ccc(NC(=O)Nc4cc(C)on4)c(Cl)c3)c2cc1OC [Tivozanib] + CS(=O)(=O)N1CCN(Cc2cc3nc(-c4cccc5[nH]ncc45)nc(N4CCOCC4)c3s2)CC1 [Pictilisib] (partner 1 µM)
- relative viability (A549; first compound 0.005 µM): 0.49
- relative viability (A549; first compound 0.01581 µM): 0.456
- relative viability (A549; first compound 0.05 µM): 0.65
- relative viability (A549; first compound 0.1581 µM): 0.451
- relative viability (A549; first compound 0.5 µM): 0.571
- relative viability (Calu-6; first compound 0.005 µM): 0.969
- relative viability (Calu-6; first compound 0.01581 µM): 0.979
- relative viability (Calu-6; first compound 0.05 µM): 0.842
- relative viability (Calu-6; first compound 0.1581 µM): 0.798
- relative viability (Calu-6; first compound 0.5 µM): 0.823
- relative viability (EBC-1; first compound 0.005 µM): 0.367
- relative viability (EBC-1; first compound 0.01581 µM): 0.362
- relative viability (EBC-1; first compound 0.05 µM): 0.378
- relative viability (EBC-1; first compound 0.1581 µM): 0.25
- relative viability (EBC-1; first compound 0.5 µM): 0.401
- relative viability (HCC-78; first compound 0.005 µM): 0.188
- relative viability (HCC-78; first compound 0.01581 µM): 0.235
- relative viability (HCC-78; first compound 0.05 µM): 0.207
- relative viability (HCC-78; first compound 0.1581 µM): 0.14
- relative viability (HCC-78; first compound 0.5 µM): 0.206
- relative viability (IA-LM; first compound 0.005 µM): 0.308
- relative viability (IA-LM; first compound 0.01581 µM): 0.366
- relative viability (IA-LM; first compound 0.05 µM): 0.321
- relative viability (IA-LM; first compound 0.1581 µM): 0.316
- relative viability (IA-LM; first compound 0.5 µM): 0.574
- relative viability (NCI-H1299; first compound 0.005 µM): 0.687
- relative viability (NCI-H1299; first compound 0.01581 µM): 0.62
- relative viability (NCI-H1299; first compound 0.05 µM): 0.797
- relative viability (NCI-H1299; first compound 0.1581 µM): 0.789
- relative viability (NCI-H1299; first compound 0.5 µM): 0.615
- relative viability (NCI-H1703; first compound 0.005 µM): 0.161
- relative viability (NCI-H1703; first compound 0.01581 µM): 0.236
- relative viability (NCI-H1703; first compound 0.05 µM): 0.253
- relative viability (NCI-H1703; first compound 0.1581 µM): 0.181
- relative viability (NCI-H1703; first compound 0.5 µM): 0.213
- relative viability (NCI-H2009; first compound 0.005 µM): 0.811
- relative viability (NCI-H2009; first compound 0.01581 µM): 0.776
- relative viability (NCI-H2009; first compound 0.05 µM): 0.833
- relative viability (NCI-H2009; first compound 0.1581 µM): 0.633
- relative viability (NCI-H2009; first compound 0.5 µM): 0.663
- relative viability (NCI-H358; first compound 0.005 µM): 0.345
- relative viability (NCI-H358; first compound 0.01581 µM): 0.332
- relative viability (NCI-H358; first compound 0.05 µM): 0.386
- relative viability (NCI-H358; first compound 0.1581 µM): 0.254
- relative viability (NCI-H358; first compound 0.5 µM): 0.367
- relative viability (NCI-H460; first compound 0.005 µM): 0.337
- relative viability (NCI-H460; first compound 0.01581 µM): 0.296
- relative viability (NCI-H460; first compound 0.05 µM): 0.449
- relative viability (NCI-H460; first compound 0.1581 µM): 0.253
- relative viability (NCI-H460; first compound 0.5 µM): 0.36
- relative viability (NCI-H661; first compound 0.005 µM): 0.37
- relative viability (NCI-H661; first compound 0.01581 µM): 0.339
- relative viability (NCI-H661; first compound 0.05 µM): 0.55
- relative viability (NCI-H661; first compound 0.1581 µM): 0.28
- relative viability (NCI-H661; first compound 0.5 µM): 0.38
